The values that follow come from patent US10359430B2, “Selective near-infrared optical imaging of necrotic cells and simultaneous cell fixing and counter staining with metallacrown complexes” (THE REGENTS OF THE UNIVERSITY OF MICHIGAN, priority 2015, dated 2019).

Series [1] can be described thus: Photophysical properties of the metallacrowns in solid state and in aqueous solutions. The series is classed as physicochemical. Particulars: room temperature, excitation at 370 nm. The method, then: FIG. 4. illustrates the normalized excitation (λem(Nd^3+)=1070 nm, λem(Yb^3+)=980 nm) and emission (λex=370 nm) spectra of Yb^3+[Zn(II)MCpyzHA], at the top, and Nd^3+[Zn(II)MCpyzHA] MCs, at the bottom, (solid or 200 μM solutions, room temperature).

Test in series [2]: as above
The series is classed as physicochemical.

Series [3] is described as follows: Photophysical parameters in OPTI-MEM media, cell supernatant and HeLa cells. Format: physicochemical. The method, then: The Yb^3+[Zn(II)MCpyzHA] complexes were dissolved in OPTI-MEM® medium with 2% SVF (without cells) and were incorporated in HeLa cells, both with and without exposure to UV light. The results in are shown in FIG. 20, (A) (corrected and normalized excitation) and FIG. 20, (B) (corrected and normalized emission). […] The present inventors developed instrumentation in order to collect photophysical properties of MCs inside of cancer cells. They measured quantitative photophysical parameters (quantum yields and life times) inside of the cells with equipment which is usually adapted for measuring of (quantum yields and life times) in solids or in concentrated solutions.
The Yb^3+[Zn(II)MCpyzHA] complexes were collected together with cell supernatant (SN) and with HeLa cells treated with N-acetyl cysteine, both with and without exposure to UV light. For SN1 and cells1, incubation with NAC took place for 30 minutes, then the cells were washed, and incubation with Yb^3+[Zn(II)MCpyzHA] took place for 15 minutes. For SN2 and cells2, incubation with Yb^3+[Zn(II)MCpyzHA] took place for 15 minutes, and then NAC was added and incubation with NAC took place for 30 minutes. The results in are shown in FIGS. 20C (corrected and normalized excitation) and 20D (corrected and normalized emission). […]

The nature of series [4]: Photostability stress tests. Format: physicochemical. The procedure:
Photostability stress tests of Yb^3+[Zn(II)MCpyzHA] (Yb λem=980 nm) and Nd^3+[Zn(II)MCpyzHA] (Nd λem=1064 nm) and the commercially available dye for necrotic cells (Propidium Iodide) were performed. The complexes (150 μM) or dye (50 μM) were dissolved in water and the complexes were also dissolved in OPTI-MEM® media. The MC solutions were exposed to 5 hours of UV radiation (377 nm). The propidium iodide solution was exposed to 5 hours of UV radiation (530 nm).

The subject of series [5] is HeLa cells. The series is described as follows: NIR epifluorescence microscopy of HeLa cells (necrotic cell labelling, simultaneous staining and fixing). The series is classed as cell-based, Human.
In series [6] the test system is HeLa cells. The description is as above. The series is classed as cell-based, Human. Particulars: 150 μM complex and 3 μM propidium iodide together, UV light (377 nm) 5 minutes. The procedure: Cells were seeded in a 8-well Lab Tek Chamber coverglass (Nunc, Dutsher S.A., Brumath, France) at a density of 6×10^4 cells/well and cultured at 37° C. in 5% humidified CO2 atmosphere.
The continued incubation enabled the internalization of the complexes.
All of the previously mentioned incubated HeLa cells were then washed with fresh OPTI-MEM® media and were incubated with 3 μM propidium iodide for 5 minutes. Propidium iodide is a commercially available stain (emitting in the visible range) for necrotic cells, and was used to confirm cell necrosis.
i. 377 nm with 50 nm band-pass filter with 50 nm bandwidth for the excitation and 805 nm long-pass filter 805 nm or 996 nm band-pass filter with 70 nm bandwidth for YbIII emission in the NIR range.
ii. […] for the excitation and 805 nm long-pass filter 805 nm or 996 nm band-pass filter with 70 nm bandwidth for YbIII emission in the NIR range. […]

[7] abbreviates: Table 3, No UV: After 5 h incubation with HeLa cells without illumination.
The mark [8] stands for this setting: Table 3, UV: After 5 h incubation with HeLa cells with UV illumination (during 8 min).

For `O=C([N-][O-])c1cnccn1.O=C([N-][O-])c1cnccn1.O=C([N-][O-])c1cnccn1.O=C([N-][O-])c1cnccn1.O=C([N-][O-])c1cnccn1.O=C([N-][O-])c1cnccn1.O=C([N-][O-])c1cnccn1.O=C([N-][O-])c1cnccn1.O=C([N-][O-])c1cnccn1.O=C([N-][O-])c1cnccn1.O=C([N-][O-])c1cnccn1.O=C([N-][O-])c1cnccn1.O=C([N-][O-])c1cnccn1.O=C([N-][O-])c1cnccn1.O=C([N-][O-])c1cnccn1.O=C([N-][O-])c1cnccn1.O=S(=O)([O-])C(F)(F)F.O=S(=O)([O-])C(F)(F)F.O=S(=O)([O-])C(F)(F)F.[Nd+3].[Zn+2].[Zn+2].[Zn+2].[Zn+2].[Zn+2].[Zn+2].[Zn+2].[Zn+2].[Zn+2].[Zn+2].[Zn+2].[Zn+2].[Zn+2].[Zn+2].[Zn+2].[Zn+2].c1ccncc1.c1ccncc1.c1ccncc1.c1ccncc1.c1ccncc1.c1ccncc1.c1ccncc1.c1ccncc1` [Nd^3+[Zn(II)MCpyzHA]], the “Q (quantum yield), D2O” value in series [1] (200 μM in D2O) is reported as 6.17(9) · 10^−2%. Also, in series [1] (200 μM in H2O), the “Q (quantum yield), H2O” value is 7.7(1) · 10^−3%. For the same compound, the “Q (quantum yield), Solid” value in series [1] (solid state) was 0.444(9) %. Besides, the “τ (luminescence lifetime), D2O” value in series [2] (200 μM in D2O, room temperature, excitation at 355 nm) is reported as 1.29(1) μs. Also, in series [2] (200 μM in H2O, room temperature, excitation at 355 nm), the “τ (luminescence lifetime), H2O” value was 0.214(4) μs. In addition, the “q (number of coordinated water molecules)” value in series [2] (calculated from lifetimes, estimated error ±0.2) was 0.1. The “τ (luminescence lifetime), Solid” value in series [2] (solid state, room temperature, excitation at 355 nm) is given as 1.71(1) μs. For the same compound, in series [3] (Table 3, In HeLa cells), the τ2 was 0.808(8) μs and the “τ2 contribution (longer component)” value turned out to be 100%. Moreover, in series [3] (setting [7]), the Quantum yield is 7.50(5) · 10^−3%, the τ1 is on record as 0.261(1) μs, the τ1 contribution is reported as 85% and the τ2 was 0.98(1) μs. The same compound returned a τ2 contribution in series [3] (setting [7]) of 15%. In series [3] (Table 3, OptiMEM), the Quantum yield is listed as 7.33(1) · 10^−3%, the τ1 was 0.256(6) μs, the τ1 contribution is 90% and the τ2 is given as 1.1(1) μs. Besides, in series [3] (Table 3, OptiMEM), the τ2 contribution turned out to be 10%. Further, in series [3] (Table 3, OptiMEM-UV 1 h 30 min), the Quantum yield is given as 7.7(1) · 10^−3%, the τ1 is listed as 0.352(2) μs, the τ1 contribution stood at 67% and the τ2 is listed as 0.874(7) μs. Besides, the τ2 contribution in series [3] (Table 3, OptiMEM-UV 1 h 30 min) turned out to be 33%. In series [3] (setting [8]), the Quantum yield is on record as 6.2(1) · 10^−3%, the τ1 was 0.376(3) μs, the τ1 contribution came to 60% and the τ2 was 0.83(2) μs. In series [3] (setting [8]), the τ2 contribution stood at 40%. Further, the “Change of luminescent properties in media, cell supernatant or HeLa cells” value in series [3] (with/without exposure to UV light) is on record as “did not change in OPTI-MEM® media or inside of the HeLa cells”. The Photostability result in series [4] (150 μM in water and OPTI-MEM media, 5 hours of irradiation with 377 nm light) is “fully photostable”. For the same compound, the “Fixing and staining of HeLa cells” value in the series on HeLa cells [5] (150 μM, 15 minutes, UV light (377 nm) 8 minutes, further 1 hour) was “fixed and stained”.
Consider `CC[N+](C)(CC)CCC[n+]1c(-c2ccccc2)c2cc(N)ccc2c2ccc(N)cc21.[I-].[I-]` [propidium iodide, reference compound], for which, in series [4] (50 μM in water, 5 hours of irradiation at 530 nm), the “Photostability (fluorescence intensity)” value is recorded as “dropped half of its initial intensity”. Also, the “Specificity of the dye for cell state” value in the series on HeLa cells [5] (150 μM complex and 3 μM propidium iodide together, UV light (377 nm) 5 minutes) was “specific for dead and apoptotic cells”. In the series with HeLa cells [6], the “Incubation time after which emission was observed in cells after UV illumination” value was determined as 15 min.
